Values quoted from earlier work as cited in patent US20100273275A1, “Methods of determining levels of steroid fractions utilizing SHBG calculations” (priority 2005, published 2010).

Assays:
[1] = target: T1, SHBG (Homo sapiens, UniProt P04278); settings: for KPS (association constant for SHBG-binding to a steroid ligand): constants used for calculations, Dunn et al. (1981), Moll et al. (1981), Rosner (1991)
T1 sequence (P04278 30-402): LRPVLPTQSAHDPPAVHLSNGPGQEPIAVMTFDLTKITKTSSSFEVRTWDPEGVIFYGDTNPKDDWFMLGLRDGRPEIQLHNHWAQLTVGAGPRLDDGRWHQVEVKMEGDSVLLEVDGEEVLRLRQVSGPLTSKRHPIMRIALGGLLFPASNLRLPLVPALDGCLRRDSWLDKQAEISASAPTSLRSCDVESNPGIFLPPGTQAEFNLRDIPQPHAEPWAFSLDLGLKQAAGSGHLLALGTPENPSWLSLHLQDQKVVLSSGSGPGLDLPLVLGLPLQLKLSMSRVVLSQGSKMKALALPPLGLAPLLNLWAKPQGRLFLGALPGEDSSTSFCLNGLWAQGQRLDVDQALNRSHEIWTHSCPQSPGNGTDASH

[2] = target: albumin (Homo sapiens, UniProt P02768); settings: for KAS (association constant for albumin-binding to a steroid ligand): constants used for calculations, Dunn et al. (1981), Moll et al. (1981), Rosner (1991)
albumin, sequence (P02768 25-609): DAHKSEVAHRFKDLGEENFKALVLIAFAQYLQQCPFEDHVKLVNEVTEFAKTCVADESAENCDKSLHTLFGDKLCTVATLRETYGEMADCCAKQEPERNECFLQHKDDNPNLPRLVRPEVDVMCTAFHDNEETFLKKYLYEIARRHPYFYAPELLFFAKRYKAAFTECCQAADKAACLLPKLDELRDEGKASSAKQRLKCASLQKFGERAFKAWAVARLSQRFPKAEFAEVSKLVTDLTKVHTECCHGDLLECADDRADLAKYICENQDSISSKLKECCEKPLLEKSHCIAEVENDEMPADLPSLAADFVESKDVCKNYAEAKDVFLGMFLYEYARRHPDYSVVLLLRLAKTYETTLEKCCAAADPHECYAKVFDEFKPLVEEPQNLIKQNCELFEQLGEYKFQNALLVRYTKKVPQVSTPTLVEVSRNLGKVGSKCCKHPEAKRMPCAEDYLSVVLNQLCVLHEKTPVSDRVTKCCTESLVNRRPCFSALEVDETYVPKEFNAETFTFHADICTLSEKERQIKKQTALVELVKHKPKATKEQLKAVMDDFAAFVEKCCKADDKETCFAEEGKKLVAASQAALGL

[3] = constant used for free and bioavailable testosterone calculation

SMILES | KPS (association constant for SHBG-binding to a steroid ligand) [1] | KAS (association constant for albumin-binding to a steroid ligand) [2] | KS (association constant, SHBG) [1, 3] | KA (association constant, albumin) [2, 3]
C[C@]12CCC(=O)C=C1CC[C@@H]1[C@@H]2CC[C@]2(C)C(=O)CC[C@@H]12 [Androstenedione] | 0.029 [M^−1] × 10^9 | 20000 [M^−1] | – | –
C[C@]12CC[C@H](O)CC1=CC[C@@H]1[C@@H]2CC[C@]2(C)C(=O)CC[C@@H]12 [Dehydroepiandrosterone] | – | 40000 [M^−1] | – | –
C[C@]12CC[C@H](O)CC1=CC[C@@H]1[C@@H]2CC[C@]2(C)C(=O)CC[C@@H]12 [Dihydroandrosterone] | – | 180000 [M^−1] | – | –
C[C@]12CCC(=O)C[C@@H]1CC[C@@H]1[C@@H]2CC[C@]2(C)[C@@H](O)CC[C@@H]12 [Dihydrotestosterone] | 2.0 [M^−1] × 10^9 | 79800 [M^−1] | – | –
C[C@]12CC[C@H]3[C@@H](CCC4=CC(=O)CC[C@@]43C)[C@@H]1CC[C@@H]2O [Testosterone] | – | 36000 [M^−1] | 1e+09 L/mol | 36000 L/mol
